Results published in PubChem BioAssay (NCI).
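The concentration for 50% growth inhibition is given as GI50. TGI denotes the concentration required for complete inhibition of growth.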

Tests used:
Test in all cases: inhibition of tumour cell growth, NCI panel, 384-well format
SW-620 colon = test system: SW-620 colon
DU-145 prostate = test system: DU-145 prostate
NCI/ADR-RES ovarian = test system: NCI/ADR-RES ovarian
U251 glioblastoma = test system: U251 glioblastoma
OVCAR-3 ovarian = test system: OVCAR-3 ovarian
KM12 colon = test system: KM12 colon
RPMI-8226 leukemia = test system: RPMI-8226 leukemia
SF-539 CNS = test system: SF-539 CNS
CAKI-1 renal = test system: CAKI-1 renal
SF-295 CNS = test system: SF-295 CNS
HS 578T breast = test system: HS 578T breast
SK-MEL-28 melanoma = test system: SK-MEL-28 melanoma
NCI-H322M lung = test system: NCI-H322M lung
LOX IMVI melanoma = test system: LOX IMVI melanoma
PC-3 prostate = test system: PC-3 prostate
NCI-H226 lung = test system: NCI-H226 lung
M14 melanoma = test system: M14 melanoma
EKVX NSCLC = test system: EKVX NSCLC
HOP-92 NSCLC = test system: HOP-92 NSCLC
UO-31 renal = test system: UO-31 renal
HOP-62 NSCLC = test system: HOP-62 NSCLC
ACHN renal = test system: ACHN renal
HT29 colon = test system: HT29 colon
T-47D breast = test system: T-47D breast
K-562 leukemia = test system: K-562 leukemia
UACC-62 melanoma = test system: UACC-62 melanoma
HCC-2998 colon = test system: HCC-2998 colon
NCI-H522 lung = test system: NCI-H522 lung
MDA-MB-468 breast = test system: MDA-MB-468 breast
A549 NSCLC = test system: A549 NSCLC
OVCAR-8 ovarian = test system: OVCAR-8 ovarian
786-0 renal = test system: 786-0 renal
OVCAR-5 ovarian = test system: OVCAR-5 ovarian
A498 renal = test system: A498 renal
MOLT-4 leukemia = test system: MOLT-4 leukemia
NCI-H23 lung = test system: NCI-H23 lung
UACC-257 melanoma = test system: UACC-257 melanoma
HCT-116 colon = test system: HCT-116 colon
SNB-75 CNS = test system: SNB-75 CNS
MCF7 breast = test system: MCF7 breast
TK-10 renal = test system: TK-10 renal
HCT-15 colon = test system: HCT-15 colon
MALME-3M melanoma = test system: MALME-3M melanoma
SNB-19 CNS = test system: SNB-19 CNS
SK-MEL-5 melanoma = test system: SK-MEL-5 melanoma
BT-549 breast = test system: BT-549 breast
OVCAR-4 ovarian = test system: OVCAR-4 ovarian
MDA-MB-435 melanoma = test system: MDA-MB-435 melanoma
NCI-H460 NSCLC = test system: NCI-H460 NSCLC
SF-268 CNS = test system: SF-268 CNS
IGROV1 ovarian = test system: IGROV1 ovarian
SK-OV-3 ovarian = test system: SK-OV-3 ovarian
SN12C renal = test system: SN12C renal
CCRF-CEM leukemia = test system: CCRF-CEM leukemia
HL-60(TB) leukemia = test system: HL-60(TB) leukemia

What does the source list for `CC[C@@H](C)Nc1cc(C(=O)NC2CC3CCC(C2)N3c2ccc(C(=O)C3CC3)cn2)c(C)cc1C(N)=O` (some centres undefined)?
GI50 (SW-620 colon): 26.2 nM; TGI (SW-620 colon): 78.8 nM; GI50 (DU-145 prostate): 23.8 nM; TGI (DU-145 prostate): 732 nM; GI50 (NCI/ADR-RES ovarian): 277 nM; TGI (NCI/ADR-RES ovarian): 782 nM; GI50 (U251 glioblastoma): 23.2 nM; TGI (U251 glioblastoma): 65.6 nM; GI50 (OVCAR-3 ovarian): 24.5 nM; TGI (OVCAR-3 ovarian): 84.1 nM; GI50 (KM12 colon): 19.9 nM; TGI (KM12 colon): 1620 nM; GI50 (RPMI-8226 leukemia): 25.1 nM; TGI (RPMI-8226 leukemia): 85.6 nM; GI50 (SF-539 CNS): 20 nM; TGI (SF-539 CNS): 51.1 nM; GI50 (CAKI-1 renal): 46.2 nM; TGI (CAKI-1 renal): 19200 nM; GI50 (SF-295 CNS): 24.2 nM; TGI (SF-295 CNS): 65.3 nM; GI50 (HS 578T breast): 40.3 nM; TGI (HS 578T breast): 236 nM; GI50 (SK-MEL-28 melanoma): 43.7 nM; TGI (SK-MEL-28 melanoma): 21600 nM; GI50 (NCI-H322M lung): 27.5 nM; TGI (NCI-H322M lung): 19100 nM; GI50 (LOX IMVI melanoma): 16.6 nM; TGI (LOX IMVI melanoma): 31.7 nM; GI50 (PC-3 prostate): 28.3 nM; TGI (PC-3 prostate): 85.9 nM; GI50 (NCI-H226 lung): 30.3 nM; TGI (NCI-H226 lung): 171 nM; GI50 (M14 melanoma): 31 nM; TGI (M14 melanoma): 12800 nM; GI50 (EKVX NSCLC): 36.7 nM; TGI (EKVX NSCLC): 17700 nM; GI50 (HOP-92 NSCLC): 28.5 nM; TGI (HOP-92 NSCLC): 70.8 nM; GI50 (UO-31 renal): 42.8 nM; TGI (UO-31 renal): 67700 nM; GI50 (HOP-62 NSCLC): 29.5 nM; TGI (HOP-62 NSCLC): 13700 nM; GI50 (ACHN renal): 45 nM; TGI (ACHN renal): 28400 nM; GI50 (HT29 colon): < 10 nM; TGI (HT29 colon): 11500 nM; GI50 (T-47D breast): 12.2 nM; TGI (T-47D breast): 52.8 nM; GI50 (K-562 leukemia): 19.9 nM; TGI (K-562 leukemia): 205 nM; GI50 (UACC-62 melanoma): 26.4 nM; TGI (UACC-62 melanoma): 81.1 nM; GI50 (HCC-2998 colon): < 10 nM; TGI (HCC-2998 colon): 39.6 nM; GI50 (NCI-H522 lung): 19.4 nM; TGI (NCI-H522 lung): 46.3 nM; GI50 (MDA-MB-468 breast): 17.9 nM; TGI (MDA-MB-468 breast): 42.8 nM; GI50 (A549 NSCLC): < 10 nM; TGI (A549 NSCLC): 11700 nM; GI50 (OVCAR-8 ovarian): 20.6 nM; TGI (OVCAR-8 ovarian): 44.6 nM; GI50 ([…]-0 renal): 33.2 nM; TGI (786-0 renal): 11700 nM; GI50 (OVCAR-5 ovarian): 39.9 nM; TGI (OVCAR-5 ovarian): 30800 nM; GI50 (A498 renal): 23.3 nM; TGI (A498 renal): 17600 nM; GI50 (MOLT-4 leukemia): < 10 nM; TGI (MOLT-4 leukemia): 17.6 nM; GI50 (NCI-H23 lung): 17.6 nM; TGI (NCI-H23 lung): 53.6 nM; GI50 (UACC-257 melanoma): 62.1 nM; TGI (UACC-257 melanoma): 25100 nM; GI50 (HCT-116 colon): 36.8 nM; TGI (HCT-116 colon): 14900 nM; GI50 (SNB-75 CNS): 82.4 nM; TGI (SNB-75 CNS): 464 nM; GI50 (MCF7 breast): < 10 nM; TGI (MCF7 breast): 237 nM; GI50 (TK-10 renal): 42 nM; TGI (TK-10 renal): 32800 nM; GI50 (HCT-15 colon): 36.1 nM; TGI (HCT-15 colon): 15000 nM; GI50 (MALME-3M melanoma): 19.9 nM; TGI (MALME-3M melanoma): 78.5 nM; GI50 (SNB-19 CNS): 41.6 nM; TGI (SNB-19 CNS): 17300 nM; GI50 (SK-MEL-5 melanoma): 19.7 nM; TGI (SK-MEL-5 melanoma): 10600 nM; GI50 (BT-549 breast): 12.5 nM; GI50 (OVCAR-4 ovarian): 6750 nM; TGI (OVCAR-4 ovarian): 23500 nM; GI50 (MDA-MB-435 melanoma): 62.6 nM; TGI (MDA-MB-435 melanoma): 23300 nM; GI50 (NCI-H460 NSCLC): < 10 nM; TGI (NCI-H460 NSCLC): 24.3 nM; GI50 (SF-268 CNS): 11 nM; TGI (SF-268 CNS): 36.3 nM; GI50 (IGROV1 ovarian): 13 nM; TGI (IGROV1 ovarian): 85.9 nM; GI50 (SK-OV-3 ovarian): 24.9 nM; TGI (SK-OV-3 ovarian): 15000 nM; GI50 (SN12C renal): 24.8 nM; TGI (SN12C renal): 76.6 nM; GI50 (CCRF-CEM leukemia): < 10 nM; TGI (CCRF-CEM leukemia): 37 nM; GI50 (HL-60(TB) leukemia): 12.6 nM; TGI (HL-60(TB) leukemia): 26.3 nM
